Experimental data: paper PMC12491383, “Organ and tumour dosimetry of ^177Lu-rhPSMA-10.1, a novel PSMA-targeted therapy: results from a Phase I trial” (European Journal of Nuclear Medicine and Molecular Imaging, 2025)
Values joined by “and” are separate entries in the source; they are usually repeats but may differ in a detail not shown here. Equal entries are not always repeated.

Key:
[1] = Image-based effective and biological half-lives (mono-exponential fit to washout phase); assay type: in vivo, human; settings: all cycles; for Biological Half-life, Tumours / Effective Half-life, Tumours: anatomy-based method
Procedure: Multi-bed single-photon emission computed tomography (SPECT)/CT was conducted at 3-, 24-, 48- and 168-hours post-^177Lu-rhPSMA-10.1 administration in each treatment cycle for the estimation of organ and tumour absorbed doses in each patient. Prior to commencement of the study, each investigating site was required to complete a calibration of their dose calibrator and SPECT/CT system to ensure harmonised quantification of the imaging data. Quantitative reconstructions and all dosimetry analyses were carried out centrally by an independent dosimetry vendor (Radiopharmaceutical Imaging and Dosimetry LLC, Baltimore, MD).
All continuous data are expressed as the mean (standard deviation [SD]) unless otherwise stated. All blood- and image-based pharmacokinetic analyses were conducted in Python and Excel. Effective half-lives for organs and tumours were calculated using a mono-exponential fit to the washout phase of the time–activity data.
Based on exponential fits to image-derived time–activity washout data in individual tissues (Fig. 5), the biological and effective half-lives of ^177Lu-rhPSMA-10.1 in tumours and normal organs were estimated using the mean data from all patients across all cycles (Supplemental Table S3).
^aTumour half-life values were derived from the anatomy-based method and averaged across all tumours and cycles (n = 137).

[2] = parameters: method as in PMID 37770108; settings: within the same patient; compassionate use program in Germany; cited from earlier work

In the case of `CC(C)(C)[Si](F)(c1ccc(C(=O)NC[C@@H](NC(=O)CN2CCN(CC(=O)[O-])CCN(CC(=O)[O-])CCN(CC(=O)[O-])CC2)C(=O)N[C@H](CCCCNC(=O)CCC(=O)NCCC[C@@H](NC(=O)CC[C@H](NC(=O)N[C@@H](CCC(=O)O)C(=O)O)C(=O)O)C(=O)O)C(=O)O)cc1)C(C)(C)C.[177Lu+3]` [^177Lu-rhPSMA-10.1], the “Biological Half-life, Kidneys” value ([1]; Mean of 13 patients) is reported as 44.9 hours, the “Biological Half-life, Salivary Glands” value ([1]; Mean of 13 patients) is reported as 64.6 hours and the “Effective Half-life, Kidneys” value ([1]; Mean of 13 patients) is reported as 33.7 h. The “Effective Half-life, Salivary Glands” value ([1]; Mean of 13 patients) was 45.4 h, the “Biological Half-life, Tumours” value ([1]; Mean of 13 patients) was 338 hours and 337.8 hours and the “Effective Half-life, Tumours” value ([1]; Mean of 13 patients) was 91.4 h and 91 h. The “Biological Half-life, Kidneys” value ([1]; Patient 1) was 123.6 hours, the “Biological Half-life, Salivary Glands” value ([1]; Patient 1) was 120.2 hours and the “Effective Half-life, Kidneys” value ([1]; Patient 1) was 69.6 h. The “Effective Half-life, Salivary Glands” value ([1]; Patient 1) was 68.6 h, the “Biological Half-life, Tumours” value ([1]; Patient 1) was 1692.5 hours and the “Effective Half-life, Tumours” value ([1]; Patient 1) was 145.8 h. The “Biological Half-life, Kidneys” value ([1]; Patient 2) was 52.3 hours, the “Biological Half-life, Salivary Glands” value ([1]; Patient 2) was 54.2 hours and the “Effective Half-life, Kidneys” value ([1]; Patient 2) was 39.4 h. The “Effective Half-life, Salivary Glands” value ([1]; Patient 2) was 40.5 h, the “Biological Half-life, Tumours” value ([1]; Patient 2) was 68.8 hours and the “Effective Half-life, Tumours” value ([1]; Patient 2) was 48.1 h. The “Biological Half-life, Kidneys” value ([1]; Patient 3) was 47.5 hours, the “Biological Half-life, Salivary Glands” value ([1]; Patient 3) was 67.5 hours and the “Effective Half-life, Kidneys” value ([1]; Patient 3) was 36.6 h. The “Effective Half-life, Salivary Glands” value ([1]; Patient 3) was 47.4 h, the “Biological Half-life, Tumours” value ([1]; Patient 3) was 305.1 hours and the “Effective Half-life, Tumours” value ([1]; Patient 3) was 104.8 h. The “Biological Half-life, Kidneys” value ([1]; Patient 4) was 35.9 hours, the “Biological Half-life, Salivary Glands” value ([1]; Patient 4) was 84.7 hours and the “Effective Half-life, Kidneys” value ([1]; Patient 4) was 29.3 h. For the same compound, the “Effective Half-life, Salivary Glands” value ([1]; Patient 4) was 55.3 h, the “Biological Half-life, Tumours” value ([1]; Patient 4) was 124.9 hours and the “Effective Half-life, Tumours” value ([1]; Patient 4) was 70.1 h. The “Biological Half-life, Kidneys” value ([1]; Patient 5) was 34.6 hours, the “Biological Half-life, Salivary Glands” value ([1]; Patient 5) was 54.0 hours and the “Effective Half-life, Kidneys” value ([1]; Patient 5) was 28.5 h. For the same compound, the “Effective Half-life, Salivary Glands” value ([1]; Patient 5) was 40.3 h, the “Biological Half-life, Tumours” value ([1]; Patient 5) was 168.9 hours and the “Effective Half-life, Tumours” value ([1]; Patient 5) was 82.1 h. For the same compound, the “Biological Half-life, Kidneys” value ([1]; Patient 6) was 38.7 hours, the “Biological Half-life, Salivary Glands” value ([1]; Patient 6) was 61.3 hours and the “Effective Half-life, Kidneys” value ([1]; Patient 6) was 31.2 h. For the same compound, the “Effective Half-life, Salivary Glands” value ([1]; Patient 6) was 44.3 h, the “Biological Half-life, Tumours” value ([1]; Patient 6) was 282.5 hours and the “Effective Half-life, Tumours” value ([1]; Patient 6) was 102.0 h. For the same compound, the “Biological Half-life, Kidneys” value ([1]; Patient 7) was 33.9 hours, the “Biological Half-life, Salivary Glands” value ([1]; Patient 7) was 57.1 hours and the “Effective Half-life, Kidneys” value ([1]; Patient 7) was 27.9 h. The “Effective Half-life, Salivary Glands” value ([1]; Patient 7) was 42.1 h, the “Biological Half-life, Tumours” value ([1]; Patient 7) was 316.6 hours and the “Effective Half-life, Tumours” value ([1]; Patient 7) was 106.1 h. The “Biological Half-life, Kidneys” value ([1]; Patient 8) was 34.9 hours, the “Biological Half-life, Salivary Glands” value ([1]; Patient 8) was 61.5 hours and the “Effective Half-life, Kidneys” value ([1]; Patient 8) was 28.6 h. For the same compound, the “Effective Half-life, Salivary Glands” value ([1]; Patient 8) was 44.4 h, the “Biological Half-life, Tumours” value ([1]; Patient 8) was 611.3 hours and the “Effective Half-life, Tumours” value ([1]; Patient 8) was 126.6 h. The “Biological Half-life, Kidneys” value ([1]; Patient 9) was 32.3 hours, the “Biological Half-life, Salivary Glands” value ([1]; Patient 9) was 47.7 hours and the “Effective Half-life, Kidneys” value ([1]; Patient 9) was 26.8 h. The “Effective Half-life, Salivary Glands” value ([1]; Patient 9) was 36.7 h, the “Biological Half-life, Tumours” value ([1]; Patient 9) was 204.8 hours and the “Effective Half-life, Tumours” value ([1]; Patient 9) was 89.7 h. The “Biological Half-life, Kidneys” value ([1]; Patient 10) was 28.7 hours, the “Biological Half-life, Salivary Glands” value ([1]; Patient 10) was 59.0 hours and the “Effective Half-life, Kidneys” value ([1]; Patient 10) was 24.3 h. The “Effective Half-life, Salivary Glands” value ([1]; Patient 10) was 43.1 h, the “Biological Half-life, Tumours” value ([1]; Patient 10) was 170.2 hours and the “Effective Half-life, Tumours” value ([1]; Patient 10) was 82.4 h. For the same compound, the “Biological Half-life, Kidneys” value ([1]; Patient 11) was 35.3 hours, the “Biological Half-life, Salivary Glands” value ([1]; Patient 11) was 61.7 hours and the “Effective Half-life, Kidneys” value ([1]; Patient 11) was 28.9 h. For the same compound, the “Effective Half-life, Salivary Glands” value ([1]; Patient 11) was 44.5 h, the “Biological Half-life, Tumours” value ([1]; Patient 11) was 148.2 hours and the “Effective Half-life, Tumours” value ([1]; Patient 11) was 76.8 h. The “Biological Half-life, Kidneys” value ([1]; Patient 12) was 54.5 hours, the “Biological Half-life, Salivary Glands” value ([1]; Patient 12) was 53.6 hours and the “Effective Half-life, Kidneys” value ([1]; Patient 12) was 40.6 h. For the same compound, the “Effective Half-life, Salivary Glands” value ([1]; Patient 12) was 40.1 h, the “Biological Half-life, Tumours” value ([1]; Patient 12) was 152.4 hours and the “Effective Half-life, Tumours” value ([1]; Patient 12) was 78.0 h. The “Biological Half-life, Kidneys” value ([1]; Patient 13) was 31.6 hours, the “Biological Half-life, Salivary Glands” value ([1]; Patient 13) was 57.8 hours and the “Effective Half-life, Kidneys” value ([1]; Patient 13) was 26.4 h. The “Effective Half-life, Salivary Glands” value ([1]; Patient 13) was 42.4 h, the “Biological Half-life, Tumours” value ([1]; Patient 13) was 145.7 hours and the “Effective Half-life, Tumours” value ([1]; Patient 13) was 76.2 h. For the same compound, the “Radiation dose to the tumour relative to ^177Lu-PSMA-I&T, fold greater” value [2] was “up to 8 fold”.
